The text below walks through data of ChEMBL document CHEMBL2073779, “pH-dependent bidirectional transport of weakly basic drugs across Caco-2 monolayers: implications for drug-drug interactions” (Pharm Res, 2003).

Each structure is given as a SMILES string.

The target of the series is ATP-dependent translocase ABCB1 (Homo sapiens, UniProt P08183). Put plainly: TP_TRANSPORTER: transepithelial transport in Caco-2 cells. Type of series: functional, cell-based.
Chain of ATP-dependent translocase ABCB1 (P08183 whole entry): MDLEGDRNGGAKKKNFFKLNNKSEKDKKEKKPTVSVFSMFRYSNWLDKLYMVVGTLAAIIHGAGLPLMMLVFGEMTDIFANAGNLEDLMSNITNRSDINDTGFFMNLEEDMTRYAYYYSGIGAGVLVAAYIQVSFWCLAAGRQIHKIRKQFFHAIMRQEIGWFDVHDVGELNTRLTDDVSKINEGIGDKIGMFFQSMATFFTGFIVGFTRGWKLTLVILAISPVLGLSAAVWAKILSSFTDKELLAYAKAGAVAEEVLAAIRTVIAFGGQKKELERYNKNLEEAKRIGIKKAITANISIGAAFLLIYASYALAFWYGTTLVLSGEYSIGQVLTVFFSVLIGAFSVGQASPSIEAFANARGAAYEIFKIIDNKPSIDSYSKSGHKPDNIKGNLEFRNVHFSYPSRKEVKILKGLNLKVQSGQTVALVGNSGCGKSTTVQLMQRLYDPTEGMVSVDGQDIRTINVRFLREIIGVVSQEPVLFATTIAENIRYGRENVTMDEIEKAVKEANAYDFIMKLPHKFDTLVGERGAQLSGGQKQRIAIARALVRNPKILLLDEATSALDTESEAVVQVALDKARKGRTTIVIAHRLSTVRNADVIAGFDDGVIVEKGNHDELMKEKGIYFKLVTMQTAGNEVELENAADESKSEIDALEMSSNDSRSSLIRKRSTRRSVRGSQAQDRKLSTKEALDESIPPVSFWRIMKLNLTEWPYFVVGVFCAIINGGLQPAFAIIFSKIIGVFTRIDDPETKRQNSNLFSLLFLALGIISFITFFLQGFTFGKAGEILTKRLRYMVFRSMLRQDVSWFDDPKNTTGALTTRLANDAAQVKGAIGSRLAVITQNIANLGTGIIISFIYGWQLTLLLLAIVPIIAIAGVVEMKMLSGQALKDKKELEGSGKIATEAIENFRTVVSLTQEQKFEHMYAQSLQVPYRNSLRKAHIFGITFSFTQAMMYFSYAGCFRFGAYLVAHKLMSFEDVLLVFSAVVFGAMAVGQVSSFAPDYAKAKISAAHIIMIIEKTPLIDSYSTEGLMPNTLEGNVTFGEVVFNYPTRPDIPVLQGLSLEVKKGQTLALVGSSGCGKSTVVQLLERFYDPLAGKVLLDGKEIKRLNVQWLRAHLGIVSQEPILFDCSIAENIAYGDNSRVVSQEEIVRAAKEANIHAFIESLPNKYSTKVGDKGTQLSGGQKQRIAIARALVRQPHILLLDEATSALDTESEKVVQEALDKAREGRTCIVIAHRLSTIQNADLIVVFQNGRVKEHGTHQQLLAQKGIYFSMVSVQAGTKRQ

Turning to `C[C@H]1O[C@@H](O[C@H]2[C@@H](O)C[C@H](O[C@H]3[C@@H](O)C[C@H](O[C@H]4CC[C@@]5(C)[C@H](CC[C@@H]6[C@@H]5C[C@@H](O)[C@]5(C)[C@@H](C7=CC(=O)OC7)CC[C@]65O)C4)O[C@@H]3C)O[C@@H]2C)C[C@H](O)[C@@H]1O` [DIGOXIN], the Activity entry is “substrate [+]”. For the compound `COCCc1ccc(OCC(O)CNC(C)C)cc1` (configuration not stated) [METOPROLOL], the Activity result is “is not a substrate [-]”.
